Experimental data taken from patent US11149033B2, “Heteroaryl compound, enantiomer, diastereomer or pharmaceutically acceptable salt thereof, and antiviral composition containing same as active ingredient” (priority 2016, dated 2021).
Like-named read-outs stand apart in the source and are kept apart here.

Legend:
B/Florida/04/2006 = assay: Antiviral activity (drug efficacy evaluation by concentration) against B/Florida/04/2006; assay type: cell-based, B type influenza virus
A/Perth/16/2009 (H3N2) = assay: Antiviral activity (drug efficacy evaluation by concentration) against A/Perth/16/2009 (H3N2); assay type: cell-based, A type influenza virus; settings: Influenza A virus
[1] = tested on: A/California/07/2009 (H1N1); assay: Antiviral activity (drug efficacy evaluation by concentration) against A/California/07/2009 (H1N1); assay type: cell-based, A type influenza virus; settings: Influenza A virus
[2] = read-out: EC50 B/Florida/04/2006, B/Florida/04/2006
[3] = CC50 B/Florida/04/2006, cytotoxicity in the B/Florida/04/2006 assay
[4] = H3N2, A/Perth/16/2009 (H3N2), read-out: EC50 A/Perth/16/2009 (H3N2)
[5] = H1N1, A/California/07/2009 (H1N1), read-out: EC50 A/California/07/2009 (H1N1)
[6] = CC50, third EC50/CC50 column pair (c7), beside the EC50 of c6

Structure (SMILES)	melting point [°C]	EC50 (B/Florida/04/2006; [2]) [µM]	CC50 (in vitro; [3]) [µM]	EC50 (A/Perth/16/2009 (H3N2); [4]) [µM]	EC50 [1, 5] [µM]	EC50 (B/Florida/04/2006) [µM]	CC50 (in vitro; CC50, beside the EC50 of c2) [µM]	CC50 (in vitro; CC50, beside the EC50 of c4) [µM]	CC50 (in vitro; [6]) [µM]	EC50 (A/Perth/16/2009 (H3N2); H3N2, read-out: EC50) [µM]	EC50 ([1]; H1N1, read-out: EC50) [µM]
Cc1nn(Cc2nnc([S+]([O-])Cc3ccccc3-c3ccccc3)o2)c(C)c1Br (centres unmarked) [Compound 12, 2-(([1,1′-biphenyl]-2-ylmethyl)sulfinyl)-5-((4-bromo-3,5-dimethyl-1H-pyrazol-1-yl)methyl)-1,3,4-oxadiazole]	48.2	2.61	7.81	3.26	2.51						
Fc1ccc(/C=C/c2nnc(Cc3ccc(Br)c(F)c3)o2)c(Cl)c1 [Compound 184, (E)-2-(4-bromo-3-fluorobenzyl)-5-(2-chloro-4-fluorostyryl)-1,3,4-oxadiazole]	166.2					> 50	> 50	> 50	> 50	> 50	> 50
Fc1ccccc1/C=C/c1nnc(Cc2cccc(Cl)c2)o1 [Compound 187, 2-(3-chlorobenzyl)-5-(2-fluorostyryl)-1,3,4-oxadiazole]	117.3					1.7	> 50	> 50	> 50	1.51	1.89
Cc1ccccc1Sc1nnc(Cn2nc(C)c(Br)c2C)o1 [Compound 53, 2-((4-bromo-3,5-dimethyl-1H-pyrazol-1-yl)methyl)-5-(o-tolylthio)-1,3,4-oxadiazole]	103.6	8.94	7.91	8.57	0.12						
CC(C)c1cccc(/C=C/c2nnc(Cc3ccc(Br)cc3)o2)c1 [Compound 151, 2-(4-bromobenzyl)-5-(3-isopropylstyryl)-1,3,4-oxadiazole]	61.8					6.39	> 50	> 50	> 50	6.38	21.3
Fc1ccc(/C=C/c2nnc(Cc3ccc(Cl)nc3)o2)c(Cl)c1 [Compound 180, (E)-2-(2-chloro-4-fluorostyryl)-5-((6-chloropyridin-3-yl)methyl)-1,3,4-oxadiazole]	163					0.98	> 50	> 50	> 50	0.51	1.05
Brc1ccc(Nc2nnc(SCc3ccccc3-c3ccccc3)o2)cc1 [Compound 52, 5-(([1,1′-biphenyl]-2-ylmethyl)thio)-N-(4-bromophenyl)-1,3,4-oxadiazol-2-amine]	158.2	16.3	> 50	8.11	> 50						
Fc1ccc(/C=C/c2nnc(Cc3ccccc3)o2)c(Cl)c1 [Compound 158, (E)-2-benzyl-5-(2-chloro-4-fluorostyryl)-1,3,4-oxadiazole]	125.9					> 50	> 50	> 50	> 50	> 50	> 50
Cc1ccccc1CCc1nnc(Nc2ccc(Br)c(F)c2)o1 [Compound 91, N-(4-bromo-3-fluorophenyl)-5-(2-methylphenethyl)-1,3,4-oxadiazol-2-amine]	151.6					19.3	6.03	15.7	6.63	8.3	9.13
Cc1nn(Cc2nnc(SCc3cccc4ccccc34)o2)c(C)c1Br [Compound 8, 2-((4-bromo-3,5-dimethyl-1H-pyrazol-1-yl)methyl)-5-((naphthalen-1-ylmethyl)thio)-1,3,4-oxadiazole]	112.1	7.48	> 50	10.5	6.94						
COc1ccccc1/C=C/c1nnc(Cc2ccc(Br)cc2)o1 [Compound 163, 2-(4-bromobenzyl)-5-(2-methoxystyryl)-1,3,4-oxadiazole]	106.3					> 50	> 50	> 50	> 50		32.3
[O-][S+](Cc1ccccc1-c1ccccc1)c1nnc(Nc2ccc(Br)cc2)o1 (centres unmarked) [Compound 63, 5-(([1,1′-biphenyl]-2-ylmethyl)sulfinyl)-N-(4-bromophenyl)-1,3,4-oxadiazol-2-amine]	199	7.06	> 14.6	6.05	2.61						
Brc1ccc(Nc2nnc(/C=C/c3ccccc3C3CCCCC3)o2)cc1 [Compound 116, (E)-N-(4-bromophenyl)-5-(2-cyclohexylstyryl)-1,3,4-oxadiazol-2-amine]	228.3					34.5	> 50	> 50		35.1	36.2
Cc1nn(Cc2nnc(SCc3ccccc3-c3ccsc3)o2)c(C)c1Br [Compound 35, 2-((4-bromo-3,5-dimethyl-1H-pyrazol-1-yl)methyl)-5-((2-(thiophen-3-yl)benzyl)thio)-1,3,4-oxadiazole]	86.9	1.88	> 50	0.8	0.7						
CC(=O)c1ccccc1CSc1nnc(Cn2nc(C)c(Br)c2C)o1 [Compound 28, 1-(2-(((5-((4-bromo-3,5-dimethyl-1H-pyrazol-1-yl)methyl)-1,3,4-oxadiazol-2-yl)thio)methyl)phenyl)ethan-1-one]	63.7	> 50	> 50	> 50	> 50						
COc1ccccc1CSc1nnc(Cn2nc(C)c(Br)c2C)o1 [Compound 10, 2-((4-bromo-3,5-dimethyl-1H-pyrazol-1-yl)methyl)-5-((2-methoxybenzyl)thio)-1,3,4-oxadiazole]	87.3	15.5	> 50	18.4	16.8						
Cc1nn(Cc2nnc(SCC(=O)c3ccccc3-c3ccccc3)o2)c(C)c1Br [Compound 13, 1-([1,1′-biphenyl]-2-yl)-2-((5-((4-bromo-3,5-dimethyl-1H-pyrazol-1-yl)methyl)-1,3,4-oxadiazol-2-yl)thio)ethan-1-on]		42.5	> 50	> 50	> 50						
Cc1nn(Cc2nnc(SCc3ccccc3-c3cccnc3)o2)c(C)c1Br [Compound 19, 2-((4-bromo-3,5-dimethyl-1H-pyrazol-1-yl)methyl)-5-((2-(pyridin-3-yl)benzyl)thio)-1,3,4-oxadiazole]		> 50	> 50	> 50	> 50						
Cc1nn(Cc2nnc(SC(c3ccccc3)c3ccccc3)o2)c(C)c1Br [Compound 25, 2-(benzhydrylthio)-5-((4-bromo-3,5-dimethyl-1H-pyrazol-1-yl)methyl)-1,3,4-oxadiazole]		5.18	9.4	2	2.5						
Cc1ccc(Cc2nnc(/C=C/c3ccccc3C(C)C)o2)cc1C [Compound 146, 2-(3,4-dimethylbenzyl)-5-(2-isopropylstyryl)-1,3,4-oxadiazole]						3.07	24.1	> 50	> 50	3.74	5.27
Cc1nn(Cc2nnc(SCc3ccccc3-n3cccc3)o2)c(C)c1Br [Compound 31, 2-((2-(1H-pyrrol-1-yl)benzyl)thio)-5-((4-bromo-3,5-dimethyl-1H-pyrazol-1-yl)methyl)-1,3,4-oxadiazole]		3.57	11.8	2.3	1.8						
Cc1ccccc1C(C)Cc1nnc(Cc2ccc(Br)cc2)o1 (centres unmarked) [Compound 110, 2-(4-bromobenzyl)-5-(2-(o-tolyl)propyl)-1,3,4-oxadiazole]						46.7	46.7	> 50	> 50	41.5	32.2
